Source: ChEMBL document CHEMBL3988442, “University of Dundee, Small-Polar-MMV Screening Library” (2021)
Where “and” joins values, the source holds several entries; their conditions need not be identical. Equal entries are not always repeated.

Columns and labels:
Histidine--tRNA ligase [1] = biological target: T1, Histidine--tRNA ligase (Trypanosoma cruzi (strain CL Brener), UniProt Q4DA54); experiment: Trypanosoma cruzi histidyl tRNA synthetase (Tc-HisRS); format: functional
T1 sequence (Q4DA54 whole entry): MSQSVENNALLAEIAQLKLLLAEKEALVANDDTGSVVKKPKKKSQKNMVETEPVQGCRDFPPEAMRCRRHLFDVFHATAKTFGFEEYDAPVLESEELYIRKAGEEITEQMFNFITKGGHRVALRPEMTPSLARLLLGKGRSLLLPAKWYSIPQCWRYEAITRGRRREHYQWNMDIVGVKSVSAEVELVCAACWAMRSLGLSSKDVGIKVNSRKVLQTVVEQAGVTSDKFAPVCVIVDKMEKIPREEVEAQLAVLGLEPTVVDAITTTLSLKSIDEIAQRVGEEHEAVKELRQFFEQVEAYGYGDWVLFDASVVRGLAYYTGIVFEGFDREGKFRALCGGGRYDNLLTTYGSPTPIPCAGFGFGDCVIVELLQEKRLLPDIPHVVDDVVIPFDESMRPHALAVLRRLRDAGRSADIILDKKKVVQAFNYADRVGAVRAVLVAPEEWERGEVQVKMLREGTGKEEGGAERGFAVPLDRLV

ClpP1P2 = ClpP1P2 (Mycobacterium tuberculosis (strain ATCC 25618 / H37Rv), UniProt P9WPC3+P9WPC5); experiment: in vitro assay to detect presence of AMC directly proportional to the activity of ClpP1P2. GHDDI collaboration.; format: functional
Chain of ClpP1P2 (P9WPC5 whole entry): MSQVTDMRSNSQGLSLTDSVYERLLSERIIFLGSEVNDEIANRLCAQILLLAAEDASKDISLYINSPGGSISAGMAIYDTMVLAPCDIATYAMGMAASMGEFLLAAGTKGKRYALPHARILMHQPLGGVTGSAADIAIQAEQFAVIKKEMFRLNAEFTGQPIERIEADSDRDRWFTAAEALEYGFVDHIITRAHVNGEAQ
Chain of ClpP1P2 (P9WPC3 whole entry): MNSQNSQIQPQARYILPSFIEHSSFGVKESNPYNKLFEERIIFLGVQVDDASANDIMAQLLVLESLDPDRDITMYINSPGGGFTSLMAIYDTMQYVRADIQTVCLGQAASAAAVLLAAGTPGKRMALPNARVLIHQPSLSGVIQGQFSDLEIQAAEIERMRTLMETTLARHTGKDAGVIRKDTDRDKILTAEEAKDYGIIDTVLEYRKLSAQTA

[2] = biological target: Protein translocase subunit SecA (Escherichia coli (strain K12), UniProt P10408); experiment: Assay to Identify E. coli SecA ATPase Inhibitors; format: functional
Chain of Protein translocase subunit SecA (P10408 whole entry): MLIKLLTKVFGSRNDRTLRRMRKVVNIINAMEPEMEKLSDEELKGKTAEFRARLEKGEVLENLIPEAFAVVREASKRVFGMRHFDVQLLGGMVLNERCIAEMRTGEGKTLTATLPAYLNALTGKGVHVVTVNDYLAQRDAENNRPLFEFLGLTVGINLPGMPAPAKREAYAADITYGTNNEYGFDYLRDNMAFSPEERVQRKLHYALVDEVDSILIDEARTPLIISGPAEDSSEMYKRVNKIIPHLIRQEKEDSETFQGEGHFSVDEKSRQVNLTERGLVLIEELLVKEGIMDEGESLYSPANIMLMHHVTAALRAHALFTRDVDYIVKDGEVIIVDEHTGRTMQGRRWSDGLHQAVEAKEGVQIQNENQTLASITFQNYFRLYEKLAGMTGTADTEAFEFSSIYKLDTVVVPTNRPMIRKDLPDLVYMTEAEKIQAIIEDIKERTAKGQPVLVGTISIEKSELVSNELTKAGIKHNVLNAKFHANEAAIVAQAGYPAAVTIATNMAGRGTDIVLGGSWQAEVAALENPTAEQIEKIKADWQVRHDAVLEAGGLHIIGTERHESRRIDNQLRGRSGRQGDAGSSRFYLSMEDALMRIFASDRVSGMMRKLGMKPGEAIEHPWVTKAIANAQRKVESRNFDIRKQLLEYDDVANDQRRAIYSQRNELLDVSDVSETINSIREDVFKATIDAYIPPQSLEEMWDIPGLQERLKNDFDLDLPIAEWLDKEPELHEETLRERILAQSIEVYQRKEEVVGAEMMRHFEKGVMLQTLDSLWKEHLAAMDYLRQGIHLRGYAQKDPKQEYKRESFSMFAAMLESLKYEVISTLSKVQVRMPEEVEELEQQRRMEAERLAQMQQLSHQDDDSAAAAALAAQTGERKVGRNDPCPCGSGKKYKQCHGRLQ

[3] = biological target: T2, Ubiquitin-activating enzyme e1, putative (Leishmania donovani (strain BPK282A1), UniProt E9BSI1); experiment: Leishmania donovani Ubiquitin Activating Enzyme (LdE1); format: functional
T2 sequence (E9BSI1 whole entry): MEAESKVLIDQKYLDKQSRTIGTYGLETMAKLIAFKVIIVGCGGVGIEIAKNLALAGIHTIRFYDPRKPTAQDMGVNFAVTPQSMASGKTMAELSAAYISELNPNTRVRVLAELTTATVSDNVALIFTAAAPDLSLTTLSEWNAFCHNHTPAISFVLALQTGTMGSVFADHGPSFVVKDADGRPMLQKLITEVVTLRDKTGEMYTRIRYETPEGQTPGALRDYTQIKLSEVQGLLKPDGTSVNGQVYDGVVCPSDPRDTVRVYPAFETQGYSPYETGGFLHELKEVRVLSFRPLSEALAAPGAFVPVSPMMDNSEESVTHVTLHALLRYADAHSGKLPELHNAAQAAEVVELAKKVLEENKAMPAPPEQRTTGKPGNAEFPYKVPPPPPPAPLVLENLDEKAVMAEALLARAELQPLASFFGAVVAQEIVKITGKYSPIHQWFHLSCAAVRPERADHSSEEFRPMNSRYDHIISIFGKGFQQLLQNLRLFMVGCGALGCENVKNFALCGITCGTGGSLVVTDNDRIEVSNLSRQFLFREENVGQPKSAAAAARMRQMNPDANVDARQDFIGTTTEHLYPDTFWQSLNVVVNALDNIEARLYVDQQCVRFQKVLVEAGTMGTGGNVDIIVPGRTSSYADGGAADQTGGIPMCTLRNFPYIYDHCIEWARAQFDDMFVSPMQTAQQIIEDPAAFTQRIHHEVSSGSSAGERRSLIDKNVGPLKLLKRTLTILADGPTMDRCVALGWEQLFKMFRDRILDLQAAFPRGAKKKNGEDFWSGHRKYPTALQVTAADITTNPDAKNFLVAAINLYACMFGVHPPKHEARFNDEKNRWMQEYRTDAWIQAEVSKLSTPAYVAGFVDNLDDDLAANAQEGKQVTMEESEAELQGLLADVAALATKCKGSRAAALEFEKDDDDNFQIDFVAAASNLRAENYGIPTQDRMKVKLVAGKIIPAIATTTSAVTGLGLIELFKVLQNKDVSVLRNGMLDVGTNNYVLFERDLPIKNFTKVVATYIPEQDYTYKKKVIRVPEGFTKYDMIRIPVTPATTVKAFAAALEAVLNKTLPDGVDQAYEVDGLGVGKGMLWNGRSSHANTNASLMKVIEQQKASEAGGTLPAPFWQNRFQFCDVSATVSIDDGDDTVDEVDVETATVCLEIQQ

Lysine--tRNA ligase = Lysine--tRNA ligase (Plasmodium falciparum (isolate 3D7), UniProt Q8IDJ8); experiment: Pf-KRS-1 (Lysyl-RNA Synthetase-1, KRS-1, cytosolic KRS) from Plasmodium falciparum. Inhibitor assay, 384 well plate, luminescence read.; format: functional
Chain of Lysine--tRNA ligase (Q8IDJ8 whole entry): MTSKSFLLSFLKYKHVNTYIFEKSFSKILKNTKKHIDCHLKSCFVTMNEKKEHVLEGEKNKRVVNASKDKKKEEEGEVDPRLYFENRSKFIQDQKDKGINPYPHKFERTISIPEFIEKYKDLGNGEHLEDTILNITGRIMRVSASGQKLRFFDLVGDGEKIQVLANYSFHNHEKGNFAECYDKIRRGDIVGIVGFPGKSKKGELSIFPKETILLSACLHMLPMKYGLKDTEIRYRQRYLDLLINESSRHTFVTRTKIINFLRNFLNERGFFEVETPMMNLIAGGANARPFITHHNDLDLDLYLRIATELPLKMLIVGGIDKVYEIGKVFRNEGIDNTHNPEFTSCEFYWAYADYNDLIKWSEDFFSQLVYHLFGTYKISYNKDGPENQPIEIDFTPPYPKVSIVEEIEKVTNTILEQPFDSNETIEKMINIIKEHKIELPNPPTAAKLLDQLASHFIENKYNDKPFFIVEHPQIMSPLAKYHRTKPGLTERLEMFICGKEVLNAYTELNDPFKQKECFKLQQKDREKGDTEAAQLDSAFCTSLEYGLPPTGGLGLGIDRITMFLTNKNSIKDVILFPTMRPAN

Histidine--tRNA ligase [4] = biological target: T3, Histidine--tRNA ligase (Leishmania infantum, UniProt A4I591); experiment: Leishmania infantum Histidine tRNA synthetase (LdHisRS); format: functional
T3 sequence (A4I591 whole entry): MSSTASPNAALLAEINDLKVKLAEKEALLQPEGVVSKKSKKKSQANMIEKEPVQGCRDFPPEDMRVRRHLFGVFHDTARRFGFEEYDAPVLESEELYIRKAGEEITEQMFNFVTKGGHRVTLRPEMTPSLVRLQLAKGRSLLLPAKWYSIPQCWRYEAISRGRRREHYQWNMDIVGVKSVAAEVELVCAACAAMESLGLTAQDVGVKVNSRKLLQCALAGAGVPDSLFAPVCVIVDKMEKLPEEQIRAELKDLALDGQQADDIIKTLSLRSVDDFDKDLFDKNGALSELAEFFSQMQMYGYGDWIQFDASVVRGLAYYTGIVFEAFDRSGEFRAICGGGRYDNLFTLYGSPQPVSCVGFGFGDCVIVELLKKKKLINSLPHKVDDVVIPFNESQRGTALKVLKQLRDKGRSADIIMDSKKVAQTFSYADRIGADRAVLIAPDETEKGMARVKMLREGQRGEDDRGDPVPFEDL

Shiga toxin 2 = biological target: T4, Shiga toxin 2 (Escherichia coli O157:H7, UniProt P09385+P09386); experiment: E. coli 0.157:H7 Shiga Toxin SOP - stx2 screening assay; format: functional
T4 sequence (P09385 whole entry): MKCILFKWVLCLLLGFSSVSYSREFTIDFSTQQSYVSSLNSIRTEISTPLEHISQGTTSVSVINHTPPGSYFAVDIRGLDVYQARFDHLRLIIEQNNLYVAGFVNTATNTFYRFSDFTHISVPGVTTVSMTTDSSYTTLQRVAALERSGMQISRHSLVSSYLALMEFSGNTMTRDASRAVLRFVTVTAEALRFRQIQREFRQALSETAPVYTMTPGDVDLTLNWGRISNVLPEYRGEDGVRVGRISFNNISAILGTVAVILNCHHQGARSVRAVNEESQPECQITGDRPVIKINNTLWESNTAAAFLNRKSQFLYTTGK
T4 sequence (P09386 whole entry): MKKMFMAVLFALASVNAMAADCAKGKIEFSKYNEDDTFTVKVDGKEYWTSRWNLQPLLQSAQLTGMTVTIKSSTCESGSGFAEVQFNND

[5] = biological target: Chromo domain-containing protein 1 (Saccharomyces cerevisiae (strain ATCC 204508 / S288c) (Baker's yeast), UniProt P32657); experiment: ScCHD-1 Enzyme Inhibition Assay; format: functional
Chain of Chromo domain-containing protein 1 (P32657 whole entry, the tested form may be a part): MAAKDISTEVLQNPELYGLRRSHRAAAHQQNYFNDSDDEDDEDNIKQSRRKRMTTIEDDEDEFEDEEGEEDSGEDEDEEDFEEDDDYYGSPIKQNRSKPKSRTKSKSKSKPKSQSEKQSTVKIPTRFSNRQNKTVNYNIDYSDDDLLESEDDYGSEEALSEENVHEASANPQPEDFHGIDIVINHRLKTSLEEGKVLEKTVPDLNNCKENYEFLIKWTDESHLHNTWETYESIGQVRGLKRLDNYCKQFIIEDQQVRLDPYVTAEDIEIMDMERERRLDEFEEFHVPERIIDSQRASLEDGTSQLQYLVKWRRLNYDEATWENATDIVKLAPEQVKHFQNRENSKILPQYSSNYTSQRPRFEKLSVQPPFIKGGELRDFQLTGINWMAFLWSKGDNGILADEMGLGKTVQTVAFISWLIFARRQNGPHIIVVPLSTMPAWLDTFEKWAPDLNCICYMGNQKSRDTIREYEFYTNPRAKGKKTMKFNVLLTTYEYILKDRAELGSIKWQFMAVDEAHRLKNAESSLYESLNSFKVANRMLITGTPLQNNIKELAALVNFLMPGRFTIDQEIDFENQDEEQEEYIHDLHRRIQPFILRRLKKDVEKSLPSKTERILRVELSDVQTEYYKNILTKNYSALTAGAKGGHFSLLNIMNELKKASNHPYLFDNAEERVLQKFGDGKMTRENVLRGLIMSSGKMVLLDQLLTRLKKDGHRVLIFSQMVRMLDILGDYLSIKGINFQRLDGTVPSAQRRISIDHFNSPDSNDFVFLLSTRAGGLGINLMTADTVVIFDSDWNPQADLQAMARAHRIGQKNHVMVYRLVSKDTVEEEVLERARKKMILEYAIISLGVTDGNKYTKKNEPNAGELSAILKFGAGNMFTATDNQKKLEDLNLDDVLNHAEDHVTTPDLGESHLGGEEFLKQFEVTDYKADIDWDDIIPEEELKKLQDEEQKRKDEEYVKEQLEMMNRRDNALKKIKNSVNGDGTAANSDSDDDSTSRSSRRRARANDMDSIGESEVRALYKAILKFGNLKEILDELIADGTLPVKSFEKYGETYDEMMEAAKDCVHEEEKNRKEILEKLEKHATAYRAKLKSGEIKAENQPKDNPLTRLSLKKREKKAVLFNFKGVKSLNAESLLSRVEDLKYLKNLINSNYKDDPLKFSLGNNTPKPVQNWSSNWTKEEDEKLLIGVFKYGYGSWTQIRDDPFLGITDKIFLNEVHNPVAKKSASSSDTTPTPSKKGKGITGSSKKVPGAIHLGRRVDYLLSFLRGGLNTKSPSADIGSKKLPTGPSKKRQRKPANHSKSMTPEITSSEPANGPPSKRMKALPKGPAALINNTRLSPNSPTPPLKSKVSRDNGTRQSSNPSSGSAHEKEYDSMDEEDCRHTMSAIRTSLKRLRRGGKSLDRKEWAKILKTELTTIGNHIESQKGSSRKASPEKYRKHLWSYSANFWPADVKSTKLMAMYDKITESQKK

[6] = microbe, parasite or virus in culture; settings: Mycobacterium tuberculosis, 96 h, read-out: pIC50 (converted)
[7] = microbe, parasite or virus in culture; settings: Mycobacterium tuberculosis, 72 h, read-out: pIC50 (converted)
[8] = To identify inhibition of the IFN signalling (Jak-Stat) pathway via expression of an eGFP reporter gene under the control of an IFN-stimulated response element (ISRE) containing MxA promoter.; format: functional, Homo sapiens
[9] = In vitro enzyme assay to detect hydrolysis of chlorophenol red-beta-D-[…] directly proportional to the number of Toxoplasma stably expressing beta-galactosidase; format: functional, organism-based, Toxoplasma gondii; settings: Toxoplasma gondii

For `CC(C)Oc1ccccc1C1CC(=O)Nc2nc(N3CCOCC3)sc21` (stereo unspecified), the IC50 (Histidine--tRNA ligase [1]) was 3.93 µM and 5.46 µM, the IC50 (ClpP1P2) was over 100 µM and the IC50 [2] was 41.6 µM and 34.6 µM. For the same compound, the IC50 [3] was 86.4 µM and 89.7 µM and the IC50 (Lysine--tRNA ligase) was over 50.1 µM.
For `COc1ccc(C2CC(=O)Nc3nc(N4CCOCC4)sc32)cc1` (stereo unspecified), the IC50 (Histidine--tRNA ligase [1]) was 10.8 µM and 8.7 µM, the IC50 (ClpP1P2) was over 100 µM and the IC50 [2] was 37.3 µM and > 100 µM. For the same compound, the IC50 (Histidine--tRNA ligase [4]) was 1.79 µM and 2.45 µM and 2.49 µM and 2.07 µM, the IC50 [3] was over 100 µM and the IC50 (Lysine--tRNA ligase) was over 50.1 µM.
In the case of `O=S(=O)(CCN1CCOC(Cn2cccn2)C1)C(F)(F)F` (stereo unspecified), the IC50 (Shiga toxin 2) is reported as 15 µM and 14 µM, the IC50 [5] is reported as over 29.5 µM and the IC50 [6] is reported as over 50.1 µM. The IC50 [7] was 28.9 µM.
For `O=C1CC(c2ccccc2Br)c2sc(N3CCOCC3)nc2N1` (stereo unspecified), the IC50 (Histidine--tRNA ligase [1]) was 6.96 µM and 6.21 µM, the IC50 [2] was over 100 µM and the IC50 (Histidine--tRNA ligase [4]) was 1.13 µM and 1.44 µM. The IC50 [3] was > 100 µM and 92.2 µM and the IC50 (Lysine--tRNA ligase) was over 50.1 µM.
With `COc1ccccc1CC(=O)N1CC[C@@]2(CCCO2)[C@@H](OC)C1` the IC50 (Shiga toxin 2) was over 100 µM.
For `COc1ccccc1C1CC(=O)Nc2nc(N3CCCCC3)sc21` (stereo unspecified), the IC50 (Histidine--tRNA ligase [1]) was 2.4 µM and 1.34 µM, the IC50 (ClpP1P2) was over 100 µM and the IC50 [2] was 22.1 µM and 29.4 µM. For the same compound, the IC50 (Histidine--tRNA ligase [4]) was 0.231 µM, the IC50 [3] was 54.8 µM and 48.5 µM and the IC50 (Lysine--tRNA ligase) was over 50.1 µM.
Work on `CCOc1ccccc1C(=O)N1CCCC1c1ncc2c(n1)CCNC2` (stereo unspecified) yielded an IC50 (Shiga toxin 2) of over 100 µM.
`Cc1nc(C(=O)N2CCC(Cc3cnc4[nH]ccc4c3)C2)co1` (stereo unspecified) gave an IC50 (Shiga toxin 2) of over 100 µM.
`COc1ncc(C2(O)CCN(Cc3c(F)cccc3F)CC2)c(OC)n1` gave an IC50 (Shiga toxin 2) of over 100 µM.
For `CC(C)c1cc(C(F)(F)F)n2nc(CCC(=O)O)nc2n1`, the IC50 (Shiga toxin 2) was over 100 µM.
For `COc1c(CNC(c2ccc(F)cc2)C(C)(C)C)c(C)nn1C` (stereo unspecified), the IC50 (Shiga toxin 2) was over 100 µM.
Work on `N#Cc1ccc(NCCNc2ccc(C(F)(F)F)cn2)nc1` yielded an IC50 (Shiga toxin 2) of over 100 µM, a pIC50 [8] of 5.715 and an IC50 [9] of 22.7 µM.
For `Cc1cc(-c2cnn(CCNC(=O)C3CC3)c2C2CC2)on1`, the IC50 (Shiga toxin 2) was over 100 µM.
Work on `CCOC(=O)c1sc2ccsc2c1CN` yielded an IC50 (Shiga toxin 2) of over 100 µM.
Work on `Cn1cc(C(=O)N2CCC(Cc3nccs3)CC2)cn1` yielded an IC50 (Shiga toxin 2) of over 100 µM.
In the case of `COc1ccc(C)cc1CN(C)Cc1nc2c(cnn2C)c(=O)[nH]1`, the IC50 (Shiga toxin 2) is reported as over 100 µM.
For `COc1cccc(C2CC(=O)Nc3nc(N4CCCCC4)sc32)c1OC` (stereo unspecified), the IC50 (Histidine--tRNA ligase [1]) was 2.42 µM and 4.13 µM, the IC50 (ClpP1P2) was over 100 µM and the IC50 [2] was 22.7 µM and 22.6 µM. The IC50 (Histidine--tRNA ligase [4]) was 0.423 µM and 0.346 µM, the IC50 [3] was 81.5 µM and 75 µM and the IC50 (Lysine--tRNA ligase) was over 50.1 µM.
With `O=C(Cc1cccc(Cl)c1)N[C@@H]1CCNC[C@H]1O` the IC50 (Shiga toxin 2) was > 100 µM and 21.3 µM.
